Test results as given in the Deep4Chem optical property database.

Assay: solvent given as SMILES

CCN(CC)c1ccc(/C=C2\CC/C(=C\c3ccc(N(c4ccccc4)c4ccc(/C=C5\CC/C(=C\c6ccc(N(CC)CC)cc6)C5=C(C#N)C#N)cc4)cc3)C2=C(C#N)C#N)cc1
absorption maximum (in CN(C)C=O): 592 nm

Cc1cc(C)c2nc3c(=O)[nH]c(=O)[nH]c3nc2c1
absorption maximum (in CC#N): 350 nm

CCC1(CC)c2cc(/C=C/c3cc(Br)c(/C=C/c4ccc5c(c4)C(CC)(CC)c4cc(N6c7ccccc7Sc7ccccc76)ccc4-5)cc3Br)ccc2-c2ccc(N3c4ccccc4Sc4ccccc43)cc21
absorption maximum (in C1CCOC1): 439.91 nm
absorption maximum (in CC#N): 435.81 nm
absorption maximum (in CCCCCC): 433.42 nm
absorption maximum (in Cc1ccccc1): 439.91 nm
absorption maximum (in ClCCl): 426 nm

C(=C\c1cc(-c2ccc3ccccc3c2)c(/C=C/c2ccc(N(c3ccccc3)c3ccccc3)cc2)cc1-c1ccc2ccccc2c1)/c1ccc(N(c2ccccc2)c2ccccc2)cc1
absorption maximum (in ClCCl): 419 nm

Cn1cc(/C=C/C(=O)c2ccccc2)c2ccccc21
absorption maximum (in CC#N): 381.03 nm
absorption maximum (in CO): 391.71 nm

CC1(C)CC(/C=C/c2ccc(-n3cccn3)cc2)=CC(=C(C#N)C#N)C1
absorption maximum (in C1CCOC1): 405 nm
absorption maximum (in CC#N): 397 nm
absorption maximum (in CCO): 404 nm
absorption maximum (in CCOC(C)=O): 403 nm
absorption maximum (in ClCCl): 404 nm
absorption maximum (in c1ccccc1): 407 nm

F[B-]1(F)OC(c2cccc(Br)c2)=Cc2c3ccccc3cc[n+]21
absorption maximum (in ClC(Cl)Cl): 399.5 nm

CN(C)c1ccc(C2=CC3=C(c4ccc([N+](=O)[O-])cc4)[C@H]4c5ccccc5[C@]3(S2)c2ccccc24)cc1
absorption maximum (in ClCCl): 484 nm

CCCCCCCCc1ccc(-c2ccc(-c3cc(-c4ccc(-c5ccc(CCCCCCCC)s5)c5nsnc45)c4ccc5c(-c6ccc(-c7ccc(CCCCCCCC)s7)c7nsnc67)cc(-c6ccc(-c7ccc(CCCCCCCC)s7)c7nsnc67)c6ccc3c4c65)c3nsnc23)s1
absorption maximum (in ClC(Cl)Cl): 452 nm

CCC1=C(C)C2=Cc3c(I)c(I)c(I)n3[B-](F)(F)[N+]2=C1C
absorption maximum (in C1CCCCC1): 543.5 nm
absorption maximum (in CC(C)=O): 528 nm
absorption maximum (in CCO): 536 nm
absorption maximum (in CCOC(C)=O): 532 nm
absorption maximum (in CO): 531.5 nm
absorption maximum (in OCC(F)(F)F): 523 nm

CCCC(=O)c1c(OCOC)c(OCOC)c(C(=O)CCC)c2c1OCO2
absorption maximum (in CC#N): 332 nm

FC(F)(F)c1ccc(C2=CC3=c4cc(-c5ccc(C(F)(F)F)cc5)c5nc(C(F)(F)C(F)(F)C(F)(F)F)nc6c(-c7ccc(C(F)(F)F)cc7)cc(c4c65)C4=CC(c5ccc(C(F)(F)F)cc5)=C5N=C(C(F)(F)C(F)(F)C(F)(F)F)N=C2C5C43)cc1 (configuration not stated)
absorption maximum (in C1CCOC1): 489 nm

CC(=O)c1ccc(-c2ccc3c(c2)C(=O)c2cc(-c4ccc(C(C)=O)cc4)ccc2-3)cc1
absorption maximum (in C1CCOC1): 343 nm

Cc1ccc2cc3cc(C)ncc3cc2c1
absorption maximum (in CCO): 383.73 nm

CN1c2ccccc2C(O)(c2ccccc2)c2cc([N+](=O)[O-])ccc21 (configuration not stated)
absorption maximum (in C1CCOC1): 392.4 nm
absorption maximum (in CC#N): 396.9 nm
absorption maximum (in CCO): 393.7 nm
absorption maximum (in CO): 396 nm
absorption maximum (in CS(C)=O): 410 nm
absorption maximum (in Cc1ccccc1): 381.5 nm

CCCCN1c2ccccc2Sc2cc(/C=C/C3=Nc4ccc5ccccc5c4C3(C)C)ccc21
absorption maximum (in C1CCCCC1): 414 nm
absorption maximum (in C1COCCO1): 417 nm
absorption maximum (in CCOC(C)=O): 416 nm
absorption maximum (in CCOCC): 414 nm
absorption maximum (in Cc1ccccc1): 423 nm

F[B-]1(F)n2c(ccc2-c2nc3ccccc3s2)C(c2ccccc2)=C2C=CC(c3nc4ccccc4s3)=[N+]21
absorption maximum (in ClC(Cl)Cl): 623 nm

CN(C)c1ccc(N2c3sc4ccccc4c3Sc3c2sc2ccccc32)cc1
absorption maximum (in ClCCl): 430 nm

Cn1c(=O)c(-c2ccccc2)nc2ccccc21
absorption maximum (in c1ccccc1): 369 nm

COc1ccc(OC)c(C2=C3C=CC(=[N+](C)C)C=C3[Si](C)(C)c3cc(N(C)C)ccc32)c1
absorption maximum (in O): 651 nm

O=C([O-])COc1cc(NC(=O)c2ccc(-c3c4cc(Cl)c(=O)cc-4oc4cc(O)c(Cl)cc34)c(C(=O)[O-])c2)ccc1N(CC(=O)[O-])CC(=O)[O-]
absorption maximum (in O): 506 nm

CCCCCCc1cc2c3c(c1)c(=C(c1ccccc1)c1ccccc1)c1cc(CCCCCC)cc4c1N3c1c(cc(CCCCCC)cc1c4=C(c1ccccc1)c1ccccc1)c2=C(c1ccccc1)c1ccccc1
absorption maximum (in ClCCl): 405 nm

CCCCC1(CCCC)c2cc(-c3ccc(C=C4C(=O)c5ccccc5C4=O)cc3)ccc2-c2ccc(-c3ccc(C=C4C(=O)c5ccccc5C4=O)cc3)cc21
absorption maximum (in C1CCOC1): 438 nm
absorption maximum (in CC(C)=O): 435 nm
absorption maximum (in CCCCCC): 418 nm
absorption maximum (in CS(C)=O): 445 nm
absorption maximum (in Cc1ccccc1): 437 nm
absorption maximum (in ClC(Cl)Cl): 445 nm

CC1(C)c2ccccc2N(c2ccc3c(c2)c2cc(N4c5ccccc5C(C)(C)c5ccccc54)ccc2c2nc(C#N)c(C#N)nc32)c2ccccc21
absorption maximum (in Cc1ccccc1): 464 nm

CN(C)c1ccc(/C=C/c2cc[n+](C)c3ccccc23)cc1
absorption maximum (in CC(C)=O): 540 nm
absorption maximum (in ClCCl): 581 nm
absorption maximum (in O): 510 nm

COc1cc(/C=C2/SC(=O)NC2=O)ccc1O
absorption maximum (in C1CCCCC1): 348 nm
absorption maximum (in C1COCCO1): 358 nm
absorption maximum (in CC#N): 354 nm
absorption maximum (in CN(C)C=O): 340 nm
absorption maximum (in CO): 355 nm
absorption maximum (in O): 355 nm
absorption maximum (in OCC(O)CO): 367 nm
absorption maximum (in OCCO): 361 nm

COc1ccccc1-c1nc2c([nH]1)C1=CC(=O)S[C@]1(C)[C@@]1(C)SC(=O)C=C21
absorption maximum (in CC#N): 390 nm

C=Cc1cccc(OC)c1
absorption maximum (in C1CCCCC1): 295 nm

CC(C)(C)c1ccc(C(C)(C)C)c(N2C(=O)c3cccc4c(-c5ccc(-c6ccc([N+](=O)[O-])cc6)s5)ccc(c34)C2=O)c1
absorption maximum (in CO): 393 nm
absorption maximum (in CS(C)=O): 400 nm
absorption maximum (in Cc1ccccc1): 392 nm

O=C(NCc1ccccc1)c1sc(-c2ccc(-c3cc(C4CC4)c(C(=O)NCc4ccccc4)s3)s2)cc1C1CC1
absorption maximum (in ClCCl): 393 nm

CCN(CC)c1ccc2cc(-c3ccc(-c4ccc5ccc6c(-c7ccc(-c8cc9ccc(N(CC)CC)cc9oc8=O)cc7)ccc7ccc4c5c76)cc3)c(=O)oc2c1
absorption maximum (in ClC(Cl)Cl): 412 nm

Cc1cc(C)cc(C)c1
absorption maximum (in C1CCCCC1): 261.57 nm

Cc1ccccc1C1=C2C=c3c(oc4ccccc34)=[N+]2[B-](F)(F)n2c1cc1c3ccccc3oc12
absorption maximum (in C1CCCCC1): 586.5 nm
absorption maximum (in CCOC(C)=O): 582 nm
absorption maximum (in CO): 580.5 nm

COc1ccc(C2CC(c3ccc(O)cc3)=NN2c2ccc(S(N)(=O)=O)cc2)cc1 (configuration not stated)
absorption maximum (in C1CCOC1): 359 nm
absorption maximum (in C1COCCO1): 360 nm
absorption maximum (in CC#N): 358 nm
absorption maximum (in CC(C)O): 358 nm
absorption maximum (in CCO): 358 nm
absorption maximum (in CCOC(C)=O): 358 nm
absorption maximum (in CN(C)C=O): 361 nm
absorption maximum (in CO): 357 nm
absorption maximum (in CS(C)=O): 364 nm
absorption maximum (in O): 360 nm

F[B-]1(F)n2c(c3ccccc3c2-c2ccccc2)N=C2c3ccccc3C(c3ccccc3)=[N+]21
absorption maximum (in ClCCl): 712 nm

COc1cc2c(cc1/C=C(\C#N)c1nc3ccccc3s1)c1ccccc1n2C
absorption maximum (in C1CCOC1): 433 nm
absorption maximum (in CC#N): 431 nm
absorption maximum (in CCOC(C)=O): 430 nm
absorption maximum (in CN(C)C=O): 439 nm
absorption maximum (in CO): 437 nm
absorption maximum (in CS(C)=O): 443 nm
absorption maximum (in Cc1ccccc1): 431 nm
absorption maximum (in ClC(Cl)Cl): 434 nm
absorption maximum (in ClCCl): 435 nm

CC(C)(C)c1ccc2c(c1)c1cc(C(C)(C)C)cc3c1n2-c1cc(-c2ccc(F)cc2)cc2c1B3c1cc(C(C)(C)C)cc3c4cc(C(C)(C)C)ccc4n-2c13
absorption maximum (in Cc1ccccc1): 469.92 nm

CN(C)c1ccc2ccc3oc(=O)c(-c4ccccc4)nc3c2c1
absorption maximum (in c1ccccc1): 474 nm

CC1=C[C@]2(C)C(=C3C(=C4C(C)=C(c5ccc(-c6nc(-c7ccccc7)c(-c7ccccc7)[nH]6)cc5)S[C@]42C)C(F)(F)C(F)(F)C3(F)F)S1
absorption maximum (in C1CCOC1): 505 nm

CC1(C)c2cc(C#N)ccc2-c2ccc(N3c4ccccc4Oc4ccccc43)cc21
absorption maximum (in C1CCCCC1): 395 nm
absorption maximum (in C1CCOC1): 380 nm
absorption maximum (in CC#N): 375 nm
absorption maximum (in Cc1ccccc1): 390 nm
absorption maximum (in ClC(Cl)Cl): 389 nm

COC1(OC)C2(Cl)c3nc4cc(-c5cccs5)ccc4nc3C1(Cl)C1C[C@H]3[C@@H](CC12)C1(Cl)c2nc4ccc(-c5cccs5)cc4nc2C3(Cl)C1(OC)OC (some centres not stated)
absorption maximum (in CC#N): 366 nm
absorption maximum (in CCCCCC): 358 nm
absorption maximum (in CCOC(C)=O): 362 nm
absorption maximum (in CO): 368 nm
absorption maximum (in Cc1ccccc1): 362 nm
absorption maximum (in ClC(Cl)Cl): 366 nm
absorption maximum (in ClCCl): 367 nm

CC1=C(C(C)(C)C)C(C)=[N+]2C1=C(C)c1c(C)c(C(C)(C)C)c(C)n1[B-]2(F)F
absorption maximum (in C1CCCCC1): 529 nm
absorption maximum (in C1CCOC1): 525.1 nm
absorption maximum (in C1COCCO1): 525.1 nm
absorption maximum (in CC#N): 520.8 nm
absorption maximum (in CC(C)=O): 522.5 nm
absorption maximum (in CC(C)CC(C)(C)C): 527.5 nm
absorption maximum (in CCC(C)C): 527.1 nm
absorption maximum (in CCCC(C)=O): 523.7 nm
absorption maximum (in CCCCCC): 527.5 nm
absorption maximum (in CCCCCCCCO): 527.3 nm
absorption maximum (in CCCCCCO): 526.7 nm
absorption maximum (in CCCCO): 526.1 nm
absorption maximum (in CCCCOC(C)=O): 524.3 nm
absorption maximum (in CCCO): 525.3 nm
absorption maximum (in CCO): 524.3 nm
absorption maximum (in CCOC(C)=O): 523.2 nm
absorption maximum (in CCOCC): 525.1 nm
absorption maximum (in CN(C)C=O): 524 nm
absorption maximum (in CNC=O): 522.3 nm
absorption maximum (in CO): 522.9 nm
absorption maximum (in COC(C)=O): 522.5 nm
absorption maximum (in OCC(F)(F)F): 521.6 nm

CCOC(=O)c1ccc(C2CC(c3cccc4ccccc34)=NN2c2ccc(C)cc2)cc1 (configuration not stated)
absorption maximum (in ClCCl): 385 nm

CN(C)c1ccc(-c2ccc(-c3cc(-c4ccccc4)c(-c4ccccc4)c(-c4ccccc4)c3-c3ccccc3)nc2)cc1
absorption maximum (in ClC(Cl)Cl): 332 nm

Cn1nc(-c2ccc(C#N)cc2)cc1-c1ccccc1
absorption maximum (in ClCCl): 282 nm

C(=C\c1c[nH]c2ccccc12)/c1cc[n+]2ccc(/C=C/c3c[nH]c4ccccc34)cc2c1
absorption maximum (in CO): 489 nm

C[Si]1(C)O[Si](C)(C)c2cc3cc4cc5c(cc4cc3cc21)C(=O)c1cc2cc3cc4c(cc3cc2cc1C5=O)[Si](C)(C)O[Si]4(C)C
absorption maximum (in ClC(Cl)Cl): 470 nm
